In patent publication US12202818B2, “Compounds and methods for CD73 modulation and indications therefor” (Opna Bio SA, priority 2020, dated 2025):

Legend:
[1] = molecular target: T1, Human CD73 (amino acid residues 27-549) (Homo sapiens, UniProt P21589); assay: CD73 enzymatic assay (luciferase-based indirect assay, CellTiter-Glo); assay type: biochemical; conditions: 0.4 nM CD73, 150 μM AMP, 1 hour at room temperature
T1 construct: Human CD73 (amino acid residues 27-549); His tag (N); made in house; host or cells: E. coli
T1 sequence (P21589 27-549): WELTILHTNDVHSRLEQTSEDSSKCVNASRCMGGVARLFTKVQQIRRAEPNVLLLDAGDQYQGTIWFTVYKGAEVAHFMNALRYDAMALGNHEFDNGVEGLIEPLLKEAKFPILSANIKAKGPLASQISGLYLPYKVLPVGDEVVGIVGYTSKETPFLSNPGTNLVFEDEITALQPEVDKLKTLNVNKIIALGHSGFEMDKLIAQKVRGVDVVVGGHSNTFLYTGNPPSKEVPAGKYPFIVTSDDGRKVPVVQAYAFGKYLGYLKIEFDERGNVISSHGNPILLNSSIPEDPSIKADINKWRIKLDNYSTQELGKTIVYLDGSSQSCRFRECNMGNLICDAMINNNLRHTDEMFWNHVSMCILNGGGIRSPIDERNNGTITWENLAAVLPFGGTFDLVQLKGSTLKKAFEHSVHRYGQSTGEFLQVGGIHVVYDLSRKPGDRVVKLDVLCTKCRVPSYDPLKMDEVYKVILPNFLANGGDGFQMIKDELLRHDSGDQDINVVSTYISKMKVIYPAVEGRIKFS
Method in brief: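 N-His human CD73 (27-549) expressed in E. coli, 0.4 nM, incubated with 150 μM AMP and compound in 50 mM HEPES pH 7.4, 0.01% Tween-20, 1 h at RT. Remaining AMP read via CellTiter-Glo luminescence with 1 μM ATP after 30 min; IC50 from nonlinear regression of % inhibition.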

human CD73 = molecular target: T2, human CD73 (Homo sapiens, UniProt P21589); assay: Inhibitor activity against CD73 in cell based assay (CD73 expressing CHO-K1 cells); conditions: CHO-K1 cells expressing human CD73, 150 μM AMP, 4 hours of incubation; read-out: CHO-K1 CELL_VARIANT: CD73 IC50
T2 construct: expressed in transfected cells
T2 sequence (P21589 27-549): T1 sequence (P21589 27-549)
Method in brief: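 Stable human CD73 CHO-K1 cells, 1×10^4/well, exposed to an 8-point 1:3 compound series (top 10 μM, 0.2% DMSO) plus 150 μM AMP for 4 h. Remaining AMP in the supernatant was read by CellTiter-Glo 2.0 luminescence with 1 μM ATP after 30 min at room temperature. IC50 came from nonlinear regression of % inhibition against cell and media-only controls.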

Structure (SMILES): O=c1[nH]ncc(N2CC[C@@H](Oc3cc(-c4ccc(C(F)(F)F)cc4)ccn3)C2)c1Cl [P-0236, (R)-4-chloro-5-(3-((4-(4-(trifluoromethyl)phenyl)pyridin-2-yl)oxy)pyrrolidin-1-yl)pyridazin-3(2H)-one]
- IC50 [1]: 0.001 to 10 µM
- IC50 (human CD73): 0.001 to 10 µM

Structure (SMILES): O=c1[nH]ncc(N2CC[C@@H](Oc3cc(-c4ccc(OC(F)(F)F)cc4)ccn3)C2)c1Cl [P-0237, (R)-4-chloro-5-(3-((4-(4-(trifluoromethoxy)phenyl)pyridin-2-yl)oxy)pyrrolidin-1-yl)pyridazin-3(2H)-one]
- IC50 [1]: 0.001 to 10 µM
- IC50 (human CD73): 0.001 to 10 µM

Structure (SMILES): O=c1[nH]ncc(N2CC[C@@H](Oc3cc(-c4ccc(S(=O)(=O)NC5CC5)cc4)c(F)cn3)C2)c1Cl [P-0238, (R)-4-(2-((1-(5-chloro-6-oxo-1,6-dihydropyridazin-4-yl)pyrrolidin-3-yl)oxy)-5-fluoropyridin-4-yl)-N-cyclopropylbenzenesulfonamide]
- IC50 [1]: 0.001 to 10 µM
- IC50 (human CD73): 0.001 to 10 µM

Structure (SMILES): CCCS(=O)(=O)N1CCN(c2ccnc(O[C@@H]3CCN(c4cn[nH]c(=O)c4Cl)C3)c2)CC1 [P-0239, (R)-4-chloro-5-(3-((4-(4-(propylsulfonyl)piperazin-1-yl)pyridin-2-yl)oxy)pyrrolidin-1-yl)pyridazin-3(2H)-one]
- IC50 [1]: 0.001 to 10 µM
- IC50 (human CD73): 0.001 to 10 µM

Structure (SMILES): CCCNS(=O)(=O)c1ccc(-c2ccnc(O[C@@H]3CCN(c4cn[nH]c(=O)c4Cl)C3)c2)c(C)c1 [P-0240, (R)-4-(2-((1-(5-chloro-6-oxo-1,6-dihydropyridazin-4-yl)pyrrolidin-3-yl)oxy)pyridin-4-yl)-3-methyl-N-propylbenzenesulfonamide]
- IC50 [1]: 0.001 to 10 µM
- IC50 (human CD73): 0.001 to 10 µM

Structure (SMILES): O=c1[nH]ncc(N2CC[C@@H](Oc3cc(-c4ccc(S(=O)(=O)Nc5ccc(F)cc5)cc4)ccn3)C2)c1Cl [P-0241, (R)-4-(2-((1-(5-chloro-6-oxo-1,6-dihydropyridazin-4-yl)pyrrolidin-3-yl)oxy)pyridin-4-yl)-N-(4-fluorophenyl)benzenesulfon-amide]
- IC50 [1]: 0.001 to 10 µM
- IC50 (human CD73): 0.001 to 10 µM

Structure (SMILES): CCCCNS(=O)(=O)c1ccc(-c2ccnc(O[C@@H]3CCN(c4cn[nH]c(=O)c4Cl)C3)c2)cc1 [P-0242, (R)-N-butyl-4-(2-((1-(5-chloro-6-oxo-1,6-dihydropyridazin-4-yl)pyrrolidin-3-yl)oxy)pyridin-4-yl)benzenesulfonamide]
- IC50 [1]: 0.001 to 10 µM
- IC50 (human CD73): 0.001 to 10 µM

Structure (SMILES): CCNS(=O)(=O)c1ccc(-c2ccnc(O[C@@H]3CCN(c4cn[nH]c(=O)c4Cl)C3)c2)cc1 [P-0243, (R)-4-(2-((1-(5-chloro-6-oxo-1,6-dihydropyridazin-4-yl)pyrrolidin-3-yl)oxy)pyridin-4-yl)-N-ethylbenzenesulfonamide]
- IC50 [1]: 0.001 to 10 µM
- IC50 (human CD73): 0.001 to 10 µM

Structure (SMILES): CNS(=O)(=O)c1ccc(-c2ccnc(O[C@@H]3CCN(c4cn[nH]c(=O)c4Cl)C3)c2)cc1 [P-0244, (R)-4-(2-((1-(5-chloro-6-oxo-1,6-dihydropyridazin-4-yl)pyrrolidin-3-yl)oxy)pyridin-4-yl)-N-methylbenzenesulfonamide]
- IC50 [1]: 0.001 to 10 µM
- IC50 (human CD73): 0.001 to 10 µM

Structure (SMILES): O=c1[nH]ncc(N2CC[C@@H](Oc3cc(-c4ccc(NS(=O)(=O)C5CC5)cc4)ccn3)C2)c1Cl [P-0245, (R)-N-(4-(2-((1-(5-chloro-6-oxo-1,6-dihydropyridazin-4-yl)pyrrolidin-3-yl)oxy)pyridin-4-yl)phenyl)cyclopropanesulfon-amide]
- IC50 [1]: 0.001 to 10 µM
- IC50 (human CD73): 0.001 to 10 µM

Structure (SMILES): O=c1[nH]ncc(N2CC[C@@H](Oc3cc(-c4ccc(S(=O)(=O)N5CCCC5)cc4)ccn3)C2)c1Cl [P-0246, (R)-4-chloro-5-(3-((4-(4-(pyrrolidin-1-ylsulfonyl)phenyl)pyridin-2-yl)oxy)pyrrolidin-1-yl)pyridazin-3(2H)-one]
- IC50 [1]: 0.001 to 10 µM
- IC50 (human CD73): 0.001 to 10 µM

Structure (SMILES): O=c1[nH]ncc(N2CC[C@@H](Oc3cc(-c4ccc(S(=O)(=O)NC5CC5)cc4)ccn3)C2)c1Cl [P-0247, (R)-4-(2-((1-(5-chloro-6-oxo-1,6-dihydropyridazin-4-yl)pyrrolidin-3-yl)oxy)pyridin-4-yl)-N-cyclopropylbenzenesulfonamide]
- IC50 [1]: 0.001 to 10 µM
- IC50 (human CD73): 0.001 to 10 µM

Structure (SMILES): O=c1[nH]ncc(N2CC[C@@H](Oc3cc(-c4ccc(S(=O)(=O)N5CCCC5)cc4)c(Cl)cn3)C2)c1Cl [P-0248, (R)-4-chloro-5-(3-((5-chloro-4-(4-(pyrrolidin-1-ylsulfonyl)phenyl)pyridin-2-yl)oxy)pyrrolidin-1-yl)pyridazin-3(2H)-one]
- IC50 [1]: 0.001 to 10 µM
- IC50 (human CD73): 0.001 to 10 µM

Structure (SMILES): O=c1[nH]ncc(N2CC[C@@H](Oc3cc(-c4ccc(S(=O)(=O)N5CCCCC5)cc4)c(Cl)cn3)C2)c1Cl [P-0249, (R)-4-chloro-5-(3-((5-chloro-4-(4-(piperidin-1-ylsulfonyl)phenyl)pyridin-2-yl)oxy)pyrrolidin-1-yl)pyridazin-3(2H)-one]
- IC50 [1]: 0.001 to 10 µM
- IC50 (human CD73): 0.001 to 10 µM

Structure (SMILES): O=c1[nH]ncc(N2CC[C@@H](Oc3cc(-c4ccc(S(=O)(=O)NC5CC5)cc4)c(Cl)cn3)C2)c1Cl [P-0251, (R)-4-(5-chloro-2-((1-(5-chloro-6-oxo-1,6-dihydropyridazin-4-yl)pyrrolidin-3-yl)oxy)pyridin-4-yl)-N-cyclopropylbenzenesulfonamide]
- IC50 [1]: 0.001 to 10 µM
- IC50 (human CD73): 0.001 to 10 µM

Structure (SMILES): O=c1[nH]ncc(N2CC[C@@H](Oc3cc(-n4cccc4)ccn3)C2)c1Cl [P-0252, (R)-5-(3-((4-(1H-pyrrol-1-yl)pyridin-2-yl)oxy)pyrrolidin-1-yl)-4-chloropyridazin-3(2H)-one]
- IC50 [1]: 0.001 to 10 µM
- IC50 (human CD73): 0.001 to 10 µM

Structure (SMILES): N#Cc1cc(O[C@@H]2CCN(c3cn[nH]c(=O)c3Cl)C2)nc(N2CCCC2)c1 [P-0253, (R)-2-((1-(5-chloro-6-oxo-1,6-dihydropyridazin-4-yl)pyrrolidin-3-yl)oxy)-6-(pyrrolidin-1-yl)isonicotinonitrile]
- IC50 [1]: 0.001 to 10 µM
- IC50 (human CD73): 10 to 100 µM
